Test results taken from the NIST ThermoML archive (doi:10.1016/j.fluid.2014.04.038).
“And” between values parts separate entries of the source, which are not always exact repeats. Identical values can stand only once. ± gives the expanded uncertainty stated by the source.

Settings: Hot wire method

N#N [nitrogen]
Gas
Settings	thermal conductivity
321.58 K, 2776.2 kPa	0.0278 ± 0.0017 W/m/K
321.95 K, 2778.7 kPa	0.02777 ± 0.0017 W/m/K
321.99 K, 2778.7 kPa	0.02793 ± 0.0017 W/m/K
322.25 K, 2776.2 kPa	0.02762 ± 0.0017 W/m/K
322.29 K, 2776.2 kPa	0.02772 ± 0.0017 W/m/K
322.61 K, 2776.2 kPa	0.02762 ± 0.0017 W/m/K
323.16 K, 1008.8 kPa	0.02726 ± 0.0017 W/m/K
323.18 K, 1008.8 kPa	0.02729 ± 0.0017 W/m/K
324.06 K, 1008.8 kPa	0.02748 ± 0.0017 W/m/K
324.12 K, 1008.8 kPa	0.02747 ± 0.0017 W/m/K
325.1 K, 1008.8 kPa	0.0277 ± 0.0017 W/m/K and 0.02772 ± 0.0017 W/m/K
325.44 K, 574.1 kPa	0.02822 ± 0.0017 W/m/K
326.18 K, 2705.7 kPa	0.02794 ± 0.0017 W/m/K
326.24 K, 2705.7 kPa	0.02859 ± 0.0018 W/m/K
326.43 K, 4299.5 kPa	0.02906 ± 0.0018 W/m/K
326.51 K, 4299.5 kPa	0.02914 ± 0.0018 W/m/K
326.67 K, 3835.8 kPa	0.02909 ± 0.0018 W/m/K and 0.02897 ± 0.0018 W/m/K
326.72 K, 2705.7 kPa	0.02848 ± 0.0018 W/m/K
326.75 K, 2705.7 kPa	0.02853 ± 0.0018 W/m/K
327.32 K, 1657.7 kPa	0.02798 ± 0.0017 W/m/K
327.57 K, 1657.7 kPa	0.02789 ± 0.0017 W/m/K
327.66 K, 4299.5 kPa	0.0294 ± 0.0018 W/m/K
327.7 K, 4299.5 kPa	0.02966 ± 0.0018 W/m/K
327.84 K, 1209.3 kPa	0.02782 ± 0.0017 W/m/K
327.85 K, 1209.3 kPa	0.02748 ± 0.0017 W/m/K
327.86 K, 3835.8 kPa	0.0294 ± 0.0018 W/m/K and 0.02906 ± 0.0018 W/m/K
328.83 K, 1657.7 kPa	0.02814 ± 0.0017 W/m/K
328.85 K, 1657.7 kPa	0.02817 ± 0.0017 W/m/K
329.15 K, 1209.3 kPa	0.02785 ± 0.0017 W/m/K
329.17 K, 1209.3 kPa	0.02784 ± 0.0017 W/m/K
330.94 K, 2682.6 kPa	0.02851 ± 0.0018 W/m/K
330.96 K, 2682.6 kPa	0.0287 ± 0.0018 W/m/K
332.04 K, 2682.6 kPa	0.02834 ± 0.0017 W/m/K
332.12 K, 2682.6 kPa	0.02902 ± 0.0018 W/m/K
335.72 K, 2657.4 kPa	0.02849 ± 0.0018 W/m/K
335.73 K, 2657.4 kPa	0.02905 ± 0.0018 W/m/K
336.01 K, 4212.3 kPa	0.02961 ± 0.0018 W/m/K
336.02 K, 4212.3 kPa	0.02949 ± 0.0018 W/m/K
336.33 K, 2657.4 kPa	0.02874 ± 0.0018 W/m/K
336.36 K, 2657.4 kPa	0.02885 ± 0.0018 W/m/K
337.13 K, 4212.3 kPa	0.03001 ± 0.0018 W/m/K and 0.0297 ± 0.0018 W/m/K
340.86 K, 2579.4 kPa	0.02926 ± 0.0018 W/m/K
340.87 K, 2579.4 kPa	0.02913 ± 0.0018 W/m/K
341.16 K, 2579.4 kPa	0.02959 ± 0.0018 W/m/K
341.21 K, 2579.4 kPa	0.02922 ± 0.0018 W/m/K

Cc1ccccc1 [toluene]
Liquid
Settings	thermal conductivity [W/m/K]
318.8 K	0.1241 ± 0.005
328.48 K	0.1218 ± 0.0049
333.34 K	0.1209 ± 0.0049
338.23 K	0.1195 ± 0.0048
341.16 K	0.1201 ± 0.0048
343.09 K	0.1176 ± 0.0047
346.01 K	0.116 ± 0.0047
350.87 K	0.1149 ± 0.0046
355.71 K	0.1151 ± 0.0046
365.42 K	0.1116 ± 0.0045
370.29 K	0.1112 ± 0.0045
